Experimental findings from patent US20240246918A1, “COMPOUNDS AND COMPOSITIONS AS EIF4E INHIBITORS AND THE USES THEREOF” (Ribometrix, Inc., priority 2022, published 2024) are described below.

The target in one test is T1, human eIF4E protein (Homo sapiens, UniProt P06730).
T1 construct: purchased Novus NBP-45314
Briefly: Biochemical competitive binding assay (TR-FRET competition, EDA-m7GDP-ATTO-647N probe). The settings on record: read-out: hEIF4E TR-FRET IC50. The method, boiled down:
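His-tagged human eIF4E (4 nM) was preincubated with Eu-anti-His antibody (2.5 nM) and added to compound (11-point, 4-fold dilutions) for 15 min. Then 5 nM EDA-m7GDP-ATTO-647N was added for 15 min, in HEPES pH 7.5, 100 mM KCl. The 665/620 TR-FRET ratio was normalized to controls, and IC50 was taken from 4-parameter fits.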

The subject of test [1] is cap-dependent translation in Flp-In-293 reporter cells. As to the kind of experiment: Cellular cap-dependent translation inhibition assay (dual luciferase assay, DLA; Fluc/Rluc ratio, 24 hours). It counts as cell-based.
For test [2], the system named is COLO 205 colorectal tumor cells. As to the kind of experiment: Tumor cell viability inhibition assay (CellTiter-Glo 2.0, 72 hours). It counts as cell-based. Particulars: COLO 205 cell viability. The method, boiled down:
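COLO 205 cells (1500/well, RPMI-1640 + 10% FBS) exposed for 72 h to an 11-point, 4-fold dilution series; cellular ATP read by CellTiter-Glo 2.0 luminescence. Data normalized to DMSO and maximum-inhibition controls; IC50 from 4-parameter curve fit.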
Background: Cellular ATP, detected with luciferase, serves as a proxy for viable cell number.

Where [3] appears, read: Homo sapiens, Flp-In-293, 24 h, dual luciferase assay, Flp-In-293 reporter cells, 24 hours, Fluc/Rluc ratio, read-out: DLA 205 IC50.
Where [4] appears, read: dual luciferase assay, Flp-In-293 reporter cells, 24 hours, Fluc/Rluc ratio, read-out: DLA 205 IC50.

Read-outs that look alike come from different tables or passages of the source.

T1 sequence (P06730 whole entry): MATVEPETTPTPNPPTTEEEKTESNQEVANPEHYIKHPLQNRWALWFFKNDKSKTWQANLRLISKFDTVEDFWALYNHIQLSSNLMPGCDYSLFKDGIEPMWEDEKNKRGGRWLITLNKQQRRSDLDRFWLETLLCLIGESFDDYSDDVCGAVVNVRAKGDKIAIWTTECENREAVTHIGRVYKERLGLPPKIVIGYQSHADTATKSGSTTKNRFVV

On to `Cc1cc(-c2cc(Cl)ccc2OCCn2c(C)nc3c(c2=O)CC2(CC3)CCN(C)CC2)c2scc(C(=O)O)c2n1` [Compound 268, 7-(5-chloro-2-(2-(1,2′-dimethyl-4′-oxo-7′,8′-dihydro-4′H-spiro[piperidine-4,6′-quinazolin]-3′(5′H)-yl)ethoxy)phenyl)-5-methylthieno[3,2-b]pyridine-3-carboxylic acid], for which the IC50 was 500 to 5000 nM on human eIF4E protein; > 5000 nM in test [1] (setting [3]); > 20000 nM in test [2] (Homo sapiens, COLO 205, 72 h).

For `Cc1cc(-c2cc(Cl)ccc2OCCn2c(C)nc3c(c2=O)CC(N(CC(F)(F)F)C2CC2)CC3)c2scc(C(=O)O)c2n1` (single isomer, unassigned) [Compound 319], the IC50 at human eIF4E protein lay within 100 to 500 nM; in test [1] (setting [3]) it was 1000 to 5000 nM; in test [2] (Homo sapiens, COLO 205, 72 h) it was 5000 to 20000 nM.

`Cc1cc(-c2cc(Cl)ccc2OCCn2c(C)nc3c(c2=O)CC(N(C)CC2CC(F)(F)C2)CC3)c2scc(C(=O)O)c2n1` (stereo not drawn) [Compound 96]: the IC50 at human eIF4E protein was < 100 nM; in test [1] (setting [3]) it was < 1000 nM; in test [2] (Homo sapiens, COLO 205, 72 h) it was < 5000 nM.

For the molecule `CC(=O)N(C)C1CCc2nc(C)n(CCOc3ccc(Cl)cc3-c3cc(C)nc4c(C(=O)O)csc34)c(=O)c2C1` (stereo not drawn) [Compound 38], the IC50 at human eIF4E protein was 100 to 500 nM; in test [1] (setting [3]), > 5000 nM; in test [2] (Homo sapiens, COLO 205, 72 h), > 20000 nM.

With `Cc1nc2c(c(=O)n1CC#Cc1ccc(Cl)cc1-c1ccnc3c(C(=O)O)csc13)CC(N(C)Cc1ccncc1)CC2` (stereo not drawn) [Compound 351], the IC50 on human eIF4E protein was < 100 nM; in test [1] (setting [3]), < 1000 nM; in test [2] (Homo sapiens, COLO 205, 72 h) it was < 5000 nM.

As for `Cc1cc(-c2cc(Cl)ccc2OCCn2c(C)nc3c(c2=O)CC(N2CCCC2)CC3)c2scc(C(=O)O)c2n1` (stereo not drawn) [Compound 4], the IC50 was < 100 nM at human eIF4E protein; < 1000 nM in test [1] (Homo sapiens, Flp-In-293, 24 h, read-out: DLA 205 IC50, dual luciferase assay, Flp-In-293 reporter cells, 24 hours, Fluc/Rluc ratio); 5000 to 20000 nM in test [2] (Homo sapiens).

In the case of `Cc1cc(-c2cc(Cl)ccc2OCCn2c(C)nc3c(c2=O)CC(N(C)C(=O)C2CCN(C)CC2)CC3)c2scc(C(=O)O)c2n1` (stereo not drawn) [Compound 74], the IC50 on human eIF4E protein was < 100 nM; in test [1] (setting [3]), > 5000 nM; in test [2] (Homo sapiens, COLO 205, 72 h), > 20000 nM.

With `Cc1nc2c(c(=O)n1CCOc1ccc(Cl)cc1-c1ccnn3c(C(=O)O)ccc13)CC(N(C)C)CC2` (stereo not drawn) [Compound 30, 4-[5-chloranyl-2-[2-[6-[di(methyl)amino]-2-methyl-4-oxidanylidene-5,6,7,8-tetrahydroquinazolin-3-yl]ethoxy]phenyl]pyrrolo[1,2-b]pyridazine-7-carboxylic acid], the IC50 on human eIF4E protein was < 100 nM; in test [1] (setting [3]) it was 1000 to 5000 nM; in test [2] (Homo sapiens, COLO 205, 72 h) it was > 20000 nM.

For `Cc1nc2c(c(=O)n1CCOc1ccc(Cl)cc1-c1cccc(C(=O)O)c1)CC(N(C)C)CC2` (single isomer, unassigned) [Compound 24], the IC50 is < 100 nM on human eIF4E protein, < 1000 nM in test [1] (setting [3]) and 5000 to 20000 nM in test [2].

Consider `Cc1cc(-c2cc(Cl)ccc2OCCn2c(C)nc3c(c2=O)CC(N(C2CCC2)C2CC(F)(F)C2)CC3)c2scc(C(=O)NS(C)(=O)=O)c2n1` (stereo not drawn) [Compound 98], for which the IC50 was < 100 nM on human eIF4E protein; < 1000 nM in test [1] (setting [3]); < 5000 nM in test [2] (Homo sapiens, COLO 205, 72 h).

On to `Cc1cc(-c2cc(Cl)ccc2OCCn2c(C)nc3c(c2=O)CC(N2CCCCC2)CC3)c2scc(C(=O)O)c2n1` (single isomer, unassigned) [Compound 249], for which the IC50 is < 100 nM at human eIF4E protein; < 1000 nM in test [1] (setting [3]); 5000 to 20000 nM in test [2] (Homo sapiens, COLO 205, 72 h).

As to `Cc1nc2c(c(=O)n1CCOc1ccc(Cl)cc1-c1cccc(C(=O)O)c1)CC(N(C)C)CC2` (single isomer, unassigned) [Compound 25], the IC50 at human eIF4E protein is 100 to 500 nM; in test [1] (setting [4]) it was 1000 to 5000 nM; in test [2] it was > 20000 nM.

On to `Cc1cc(-c2cc(Cl)ccc2OCCn2c(C)nc3c(c2=O)CC(N(C)C2CNC2)CC3)c2scc(C(=O)O)c2n1` (stereo not drawn) [Compound 66, 7-[2-[2-[6-[azetidin-3-yl(methyl)amino]-2-methyl-4-oxidanylidene-5,6,7,8-tetrahydroquinazolin-3-yl]ethoxy]-5-chloranyl-phenyl]-5-methyl-thieno[3,2-b]pyridine-3-carboxylic acid; 2,2,2-tris(fluorenyl)acetic acid], for which the IC50 at human eIF4E protein is < 100 nM; in test [1] (setting [3]) it was > 5000 nM; in test [2] (Homo sapiens, COLO 205, 72 h) it was > 20000 nM.

For `Cc1cc(-c2cc(Cl)ccc2OCCn2c(C)nc3c(c2=O)CC(N2CCN(CC(F)(F)F)CC2)CC3)c2scc(C(=O)O)c2n1` (stereo not drawn) [Compound 278], the IC50 at human eIF4E protein was < 100 nM; in test [1] (setting [3]) it was < 1000 nM; in test [2] (Homo sapiens, COLO 205, 72 h), < 5000 nM.

As to `Cc1cc(-c2cc(Cl)ccc2OCCn2c(C)nc3c(c2=O)CC(N(C)C2CC2)CC3)c2c(n1)c(C(=O)O)cn2C` (stereo not drawn) [Compound 277], the IC50 is 500 to 5000 nM on human eIF4E protein; > 5000 nM in test [1] (setting [3]); > 20000 nM in test [2] (Homo sapiens, COLO 205, 72 h).

With `Cc1cc(-c2cc(Cl)ccc2OCCn2c(C)nc3c(c2=O)CC(N(C)Cc2ccncc2)CC3)c2scc(C(=O)O)c2n1` (single isomer, unassigned) [Compound 99], the IC50 at human eIF4E protein was < 100 nM; in test [1] (setting [3]), 1000 to 5000 nM; in test [2] (Homo sapiens, COLO 205, 72 h), 5000 to 20000 nM.

On to `COCCN(C)C1CCc2nc(C)n(CCOc3ccc(Cl)cc3-c3cc(C)nc4c(C(=O)O)csc34)c(=O)c2C1` (stereo not drawn) [Compound 33], for which the IC50 at human eIF4E protein is < 100 nM; in test [1] (setting [3]), < 1000 nM; in test [2] (Homo sapiens, COLO 205, 72 h), < 5000 nM.

On to `Cc1cc(-c2cc(Cl)ccc2OCCn2c(C)nc3c(c2=O)CC(N(C)Cc2ccncc2)CC3)c2scc(C(=O)NS(C)(=O)=O)c2n1` (single isomer, unassigned) [Compound 330], for which the IC50 on human eIF4E protein is < 100 nM; in test [1] (setting [3]) it was < 1000 nM; in test [2] (Homo sapiens, COLO 205, 72 h), < 5000 nM.

Consider `Cc1cc(-c2cc(Cl)ccc2OCCn2c(C)nc3c(c2=O)CC(N(C)C2CCC(F)(F)C2)CC3)c2scc(C(=O)O)c2n1` (single isomer, unassigned) [Compound 337], for which the IC50 is < 100 nM on human eIF4E protein; < 1000 nM in test [1] (setting [3]); < 5000 nM in test [2] (Homo sapiens, COLO 205, 72 h).

In the case of `Cc1cc(-c2cc(Cl)ccc2OCCn2c(C)nc3c(c2=O)CC(N(C)CC2(C)COC2)CC3)c2scc(C(=O)O)c2n1` (single isomer, unassigned) [Compound 344], the IC50 was < 100 nM on human eIF4E protein; < 1000 nM in test [1] (setting [3]); < 5000 nM in test [2] (Homo sapiens, COLO 205, 72 h).

For `Cc1nc2c(c(=O)n1CC#Cc1ccc(Cl)cc1-c1ccnc3c(C(=O)O)csc13)CC(N1CCCCC1)CC2` (single isomer, unassigned) [Compound 298], the IC50 at human eIF4E protein is < 100 nM; in test [1] (setting [3]) it was < 1000 nM; in test [2] (Homo sapiens, COLO 205, 72 h) it was < 5000 nM.

In the case of `Cc1cc(-c2cc(Cl)ccc2OCCn2c(C)nc3c(c2=O)CC(N(C)CC2CC(F)(F)C2)CC3)c2scc(C(=O)O)c2n1` (single isomer, unassigned) [Compound 259], the values for the IC50 (on human eIF4E protein; in test [1] (setting [3]); in test [2]) were < 100 nM, < 1000 nM and < 5000 nM, respectively.

In the case of `Cc1cc(-c2cc(Cl)ccc2OCCn2c(C)nc3c(c2=O)CC(N(C)C)CC3)c2ccc(C(=O)NS(C)(=O)=O)n2n1` (stereo not drawn) [Compound 59, 4-[5-chloranyl-2-[2-[6-[di(methyl)amino]-2-methyl-4-oxidanylidene-5,6,7,8-tetrahydroquinazolin-3-yl]ethoxy]phenyl]-2-methyl-N-methylsulfonyl-pyrrolo[1,2-b]pyridazine-7-carboxamide], the IC50 at human eIF4E protein was < 100 nM; in test [1] (setting [3]) it was < 1000 nM; in test [2] (Homo sapiens, COLO 205, 72 h), < 5000 nM.

As to `Cc1cc(-c2cc(Cl)ccc2OCCn2c(C)nc3c(c2=O)CC(N(C)C2CC(F)(F)C2)CC3)c2scc(C(=O)NS(C)(=O)=O)c2n1` (single isomer, unassigned) [Compound 94], the IC50 at human eIF4E protein is < 100 nM; in test [1] (setting [4]) it was < 1000 nM; in test [2], < 5000 nM.

For the molecule `Cc1cc(-c2cc(Cl)ccc2OCCn2c(C)nc3c(c2=O)CC2(CC3)CCN(C3CC3)CC2)c2scc(C(=O)O)c2n1` [Compound 267, 7-(5-chloro-2-(2-(1-cyclopropyl-2′-methyl-4′-oxo-7′,8′-dihydro-4′H-spiro[piperidine-4,6′-quinazolin]-3′(5′H)-yl)ethoxy)phenyl)-5-methylthieno[3,2-b]pyridine-3-carboxylic acid], the IC50 is < 100 nM at human eIF4E protein; < 1000 nM in test [1] (setting [3]); 5000 to 20000 nM in test [2] (Homo sapiens, COLO 205, 72 h).

Regarding `Cc1cc(-c2cc(Cl)ccc2OCCn2c(C)nc3c(c2=O)CC(N(C)S(C)(=O)=O)CC3)c2scc(C(=O)O)c2n1` (stereo not drawn) [Compound 37], the IC50 on human eIF4E protein is < 100 nM; in test [1] (setting [3]), > 5000 nM; in test [2] (Homo sapiens, COLO 205, 72 h), 5000 to 20000 nM.

Turning to `Cc1cc(-c2cc(Cl)ccc2OCCn2c(C)nc3c(c2=O)CC(N2CC4(CCN(C)CC4)C2)CC3)c2scc(C(=O)O)c2n1` (stereo not drawn) [Compound 22], the IC50 is < 100 nM at human eIF4E protein; 1000 to 5000 nM in test [1] (setting [3]); > 20000 nM in test [2] (Homo sapiens, COLO 205, 72 h).

For the molecule `Cc1cc(-c2cc(Cl)ccc2OCCn2c(C)nc3c(c2=O)CC(N(C)C2(C(F)(F)F)CC2)CC3)c2scc(C(=O)O)c2n1` (stereo not drawn) [Compound 265], the IC50 on human eIF4E protein was 100 to 500 nM; in test [1] (setting [3]), 1000 to 5000 nM; in test [2] (Homo sapiens, COLO 205, 72 h) it was > 20000 nM.

`Cc1cc(-c2cc(Cl)ccc2OCCn2c(C)nc3c(c2=O)CC(N2CC(C)(N(C)C)C2)CC3)c2scc(C(=O)O)c2n1` (stereo not drawn) [Compound 23]: the IC50 on human eIF4E protein was < 100 nM; in test [1] (setting [3]) it was > 5000 nM; in test [2] (Homo sapiens, COLO 205, 72 h), > 20000 nM.
